Here are results for ten molecules from ChEMBL document CHEMBL1201862, “PubChem BioAssay data set” (2004).

SMILES strings stand for the structures.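 Where inhibition never reached the appropriate level, the endpoint shown equals the highest concentration tested. Otherwise, values were interpolated linearly from a five-concentration, 48-hour dose response in 96-well plates. GI50 is the concentration that inhibits growth by half.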 Activity calls are given as the source filed them. No stated cut-off is given here; in the data, active = GI50 up to about 1.1 µM and inactive = higher. Where only a bound is given, the exact number is not on record here.

Some test systems named below: SNB-19; OVCAR-5; MDA-MB-435; SN12C; DU-145; Malme-3M; COLO 205; EKVX; HCT-15; UACC-257; HL-60; HOP-62; K562; MCF7; A549; MDA-N; MDA-MB-231; SR; ACHN; SW-620.
Common to all, as to assay: DTP human tumour cell line panel, 48 h

Consider `NC(CCC(=O)O)C(=O)N1CCN(c2nc(N3CCCC3)c3nc(Cl)c(NCc4ccccc4)nc3n2)CC1` (stereo not given), for which the GI50 (usually the concentration at which growth is held to half of that of the control) in the experiment on SNB-19 is 17.5 µM (inactive); in the experiment with OVCAR-5 it was 18.7 µM (inactive); in the experiment on MDA-MB-435 it was 9.48 µM (inactive); with SN12C, 15.8 µM (inactive); in the experiment with DU-145, 8.43 µM (inactive); with Malme-3M it was 17.3 µM (inactive). Besides, the GI50 is 10.7 µM (inactive) in the experiment on COLO 205; 13.8 µM (inactive) in the experiment with EKVX; 14 µM in the experiment on HCT-15; 14.5 µM (inactive) in the experiment on UACC-257; 7.13 µM (inactive) in the experiment with HL-60; 13.2 µM (inactive) in the experiment with HOP-62. In addition, the GI50 is 12.7 µM (inactive) with K562; 7.24 µM (inactive) in the experiment on MCF7; 12.5 µM (inactive) with A549; 10.1 µM (inactive) in the experiment on MDA-N; 14.4 µM (inactive) with MDA-MB-231; 3.68 µM (inactive) in the experiment with SR. The GI50 with ACHN was 15.1 µM (inactive); in the experiment on SW-620, 18.2 µM (inactive).

Regarding `O=C(CC(C(=O)c1ccc(F)cc1)c1ccsc1)c1cccs1` (stereo not given), the GI50 with SNB-19 is > 100 µM (inactive); with OVCAR-5 it was > 100 µM (inactive); with MDA-MB-435, > 100 µM (inactive); in the experiment on SN12C, > 100 µM (inactive); in the experiment on DU-145, > 100 µM (inactive); in the experiment on Malme-3M, 36 µM (inactive). For the same molecule, the GI50 in the experiment with COLO 205 was > 100 µM (inactive); in the experiment on EKVX, 68.9 µM (inactive); in the experiment on HCT-15 it was 86.9 µM; in the experiment on UACC-257 it was 70.3 µM (inactive); in the experiment with HL-60 it was 55.2 µM (inactive); in the experiment with HOP-62, > 100 µM (inactive). Besides, the GI50 is > 100 µM (inactive) with K562; 82.2 µM (inactive) with MCF7; 74.8 µM (inactive) with A549; 79.8 µM (inactive) in the experiment on MDA-N; > 100 µM (inactive) in the experiment with MDA-MB-231; 39.4 µM (inactive) in the experiment on SR. Further, the GI50 in the experiment with ACHN and in the experiment on SW-620 was > 100 µM (inactive) each time.

With `O=[N+]([O-])c1cccc(CSc2nc(O)c3nc[nH]c3n2)c1`, the GI50 with SNB-19, with OVCAR-5, in the experiment with MDA-MB-435, in the experiment with SN12C, in the experiment with DU-145 and with Malme-3M was > 100 µM (inactive) each time. For the same molecule, the GI50 in the experiment on COLO 205 was > 100 µM (inactive); in the experiment with EKVX it was > 100 µM (inactive); in the experiment with HCT-15, > 100 µM; in the experiment on UACC-257, > 100 µM (inactive); with HL-60 it was > 100 µM (inactive); in the experiment with HOP-62, > 100 µM (inactive). For the same molecule, the GI50 is 78.2 µM (inactive) in the experiment with K562; > 100 µM (inactive) in the experiment with MCF7; > 100 µM (inactive) with A549; > 100 µM (inactive) in the experiment with MDA-N; > 100 µM (inactive) in the experiment on MDA-MB-231; > 100 µM (inactive) in the experiment with SR. The GI50 in the experiment with ACHN and in the experiment with SW-620 was > 100 µM (inactive) in each case.

On to `OC1(C2(c3ccc(Cl)cc3)CCCC2)c2ccccc2C2=NCCN21` (stereo not given), for which the GI50 with SNB-19 is 16.4 µM (inactive); in the experiment with OVCAR-5 it was 15.8 µM (inactive); with MDA-MB-435, 12.6 µM (inactive); in the experiment with SN12C, 17.5 µM (inactive); in the experiment on DU-145 it was 0.0716 µM (active); in the experiment on Malme-3M it was 17.7 µM (inactive). Besides, the GI50 was 10.3 µM (inactive) in the experiment with COLO 205; 16.9 µM (inactive) with EKVX; 15.6 µM with HCT-15; 14.2 µM (inactive) with UACC-257; 14.4 µM (inactive) in the experiment with HL-60; 17.4 µM (inactive) in the experiment on HOP-62. For the same molecule, the GI50 is 4.81 µM (inactive) in the experiment with K562; 17.5 µM (inactive) with MCF7; 15.8 µM (inactive) in the experiment with A549; 16.1 µM (inactive) in the experiment on MDA-N; 14.8 µM (inactive) in the experiment on MDA-MB-231; 18.1 µM (inactive) with SR. Moreover, the GI50 in the experiment with ACHN was 16.7 µM (inactive); with SW-620, 22.8 µM (inactive).

For the molecule `COc1ccc(C2C(Cl)C(=O)N2NC(=O)c2ccc(N)cc2)cc1OC` (stereo not given), the GI50 is 13.9 µM (inactive) in the experiment with SNB-19; 19.1 µM (inactive) in the experiment on OVCAR-5; 5.87 µM (inactive) in the experiment with MDA-MB-435; 9.95 µM (inactive) with SN12C; 16.4 µM (inactive) in the experiment with DU-145; 12.5 µM (inactive) with Malme-3M. Also, the GI50 in the experiment on COLO 205 is 11.9 µM (inactive); with EKVX it was 16.5 µM (inactive); in the experiment on HCT-15, 7.46 µM; in the experiment with UACC-257, 14.5 µM (inactive); with HL-60, 1.64 µM (inactive); in the experiment with HOP-62 it was 15.9 µM (inactive). Besides, the GI50 in the experiment with K562 is 3.12 µM (inactive); with MCF7 it was 9.84 µM (inactive); in the experiment on A549, 15.4 µM (inactive); with MDA-N, 9.46 µM (inactive); in the experiment on MDA-MB-231, 14.7 µM (inactive); with SR, 2.2 µM (inactive). Moreover, the results for the GI50 in the experiment with ACHN and with SW-620 were 13.7 µM (inactive) and 3.27 µM (inactive), respectively.

`O=C(O)c1ccccc1CC(Cc1ccccc1)C(=O)O` (stereo not given): the GI50 in the experiment on SNB-19, in the experiment with OVCAR-5, in the experiment on MDA-MB-435, in the experiment on SN12C, with DU-145 and in the experiment with Malme-3M was > 100 µM (inactive) each time. Besides, the GI50 in the experiment on COLO 205 was > 100 µM (inactive); with EKVX, > 100 µM (inactive); with HCT-15, > 100 µM; with UACC-257, > 100 µM (inactive); in the experiment on HL-60 it was > 100 µM (inactive); in the experiment with HOP-62, > 100 µM (inactive). For the same molecule, the GI50 in the experiment with K562 was > 100 µM (inactive); in the experiment with MCF7 it was > 10 µM (inactive); in the experiment with A549 it was > 100 µM (inactive); in the experiment with MDA-N, > 100 µM (inactive); in the experiment on MDA-MB-231, > 100 µM (inactive); in the experiment on SR, > 100 µM (inactive). Further, the GI50 in the experiment on ACHN and with SW-620 was > 100 µM (inactive) each time.

Consider `CCOP(=O)(OCC)/C(C#N)=C/c1cnc(-c2ccccc2)[nH]1`, for which the GI50 in the experiment on SNB-19 was > 100 µM (inactive); with OVCAR-5, > 100 µM (inactive); in the experiment with MDA-MB-435 it was 24.7 µM (inactive); in the experiment on SN12C it was > 100 µM (inactive); in the experiment on DU-145, > 100 µM (inactive); in the experiment on Malme-3M it was > 100 µM (inactive). In addition, the GI50 is > 100 µM (inactive) with COLO 205; > 100 µM (inactive) with EKVX; > 100 µM in the experiment on HCT-15; > 100 µM (inactive) in the experiment on UACC-257; > 100 µM (inactive) with HL-60; > 100 µM (inactive) with HOP-62. The GI50 in the experiment with K562, with MCF7, in the experiment with A549, in the experiment with MDA-N, with MDA-MB-231 and in the experiment on SR was > 100 µM (inactive) in each case. The GI50 with ACHN and with SW-620 was > 100 µM (inactive) throughout.

For the molecule `Clc1nc2c(-c3cccs3)ncnc2n1Cc1ccccc1`, the GI50 in the experiment with SNB-19 was 27.4 µM (inactive); with OVCAR-5, > 94.2 µM (inactive); in the experiment with MDA-MB-435, 49.2 µM (inactive); in the experiment on SN12C, 35.8 µM (inactive); in the experiment on DU-145, 2.49 µM (inactive); in the experiment on Malme-3M, 36.5 µM (inactive). For the same molecule, the GI50 in the experiment on COLO 205 is 34.7 µM (inactive); in the experiment on EKVX, 21.4 µM (inactive); in the experiment with HCT-15, 32.1 µM; in the experiment on UACC-257 it was 21.2 µM (inactive); in the experiment with HL-60 it was 24.5 µM (inactive); in the experiment on HOP-62, 47.6 µM (inactive). The GI50 with K562 was 57.3 µM (inactive); with MCF7 it was 6.04 µM (inactive); with A549, 32.4 µM (inactive); in the experiment with MDA-N, 42.6 µM (inactive); with MDA-MB-231, 32.2 µM (inactive); in the experiment with SR it was 6.97 µM (inactive). The GI50 is 2 µM (inactive) in the experiment on ACHN and > 30.3 µM (inactive) with SW-620.

In the case of `COc1cccc(C23CCN(C)C(CC(O)C2)C3)c1OC` (stereo not given), the GI50 in the experiment on SNB-19, with OVCAR-5, in the experiment with MDA-MB-435, in the experiment with SN12C, with DU-145 and with Malme-3M was > 100 µM (inactive) throughout. Moreover, the GI50 in the experiment with COLO 205 was > 100 µM (inactive); with EKVX, > 100 µM (inactive); with HCT-15, > 100 µM; in the experiment with UACC-257, > 100 µM (inactive); in the experiment on HL-60, > 100 µM (inactive); with HOP-62 it was > 100 µM (inactive). For the same molecule, the GI50 in the experiment with K562, in the experiment on MCF7, in the experiment with A549, in the experiment with MDA-N, in the experiment on MDA-MB-231 and in the experiment on SR was > 100 µM (inactive) each time. Moreover, the GI50 with ACHN and with SW-620 was > 100 µM (inactive) each time.

Turning to `C1=N\c2ccc(cc2)-c2ccc(cc2)/N=C\c2ccccc2OCc2cccc(n2)COc2ccccc2/1`, the GI50 is 13.9 µM (inactive) in the experiment on SNB-19; > 63.5 µM (inactive) in the experiment on OVCAR-5; > 100 µM (inactive) in the experiment on MDA-MB-435; > 81.3 µM (inactive) with SN12C; > 80.5 µM (inactive) in the experiment with DU-145; > 82.8 µM (inactive) with Malme-3M. Moreover, the GI50 with COLO 205 is > 100 µM (inactive); with EKVX it was 36.4 µM (inactive); in the experiment on HCT-15 it was > 100 µM; in the experiment with UACC-257 it was > 100 µM (inactive); in the experiment with HL-60 it was > 100 µM (inactive); with HOP-62, 5.27 µM (inactive). Besides, the GI50 in the experiment with K562 is > 100 µM (inactive); in the experiment on MCF7, > 100 µM (inactive); with A549, 72.8 µM (inactive); in the experiment with MDA-N, > 100 µM (inactive); with MDA-MB-231, 34 µM (inactive); in the experiment with SR, > 100 µM (inactive). For the same molecule, the GI50 in the experiment on ACHN is 21.3 µM (inactive); in the experiment with SW-620, > 100 µM (inactive).
